From patent US9326985B2, “Heteroaryl pyridone and aza-pyridone amide compounds” (Genentech, Inc., priority 2013, dated 2016)

How the values were obtained:
[1] = target: T1, full length human wildtype Btk (Homo sapiens, UniProt Q06187); experiment: Biochemical Btk Assay (BTK LC3K)
T1 construct: V5 (C); 6xHis (C); made in house; host or cells: Sf9 insect cells (baculovirus, pFastBac)
Procedure: A generalized procedure for a standard biochemical Btk, Kinase Assay that can be used to test Formula I compounds is as follows. A master mix minus Btk enzyme is prepared containing 1× Cell Signaling kinase buffer (25 mM Tris-HCl, pH 7.5, 5 mM beta-glycerophosphate, 2 mM dithiothreitol, 0.1 mM Na3VO4, 10 mM MgCl2), 0.5 μM Promega PTK Biotinylated peptide substrate 2, and 0.01% BSA. A master mix plus Btk enzyme is prepared containing 1× Cell Signaling kinase buffer, 0.5 μM (micromolar) PTK Biotinylated peptide substrate 2, 0.01% BSA, and 100 ng/well (0.06 mU/well) Btk enzyme. Btk enzyme is prepared as follows: full length human wildtype Btk (accession number NM-000061) with a C-terminal V5 and 6×His tag was subcloned into pFastBac® vector (Invitrogen/Life Technologies) for making baculovirus carrying this epitope-tagged Btk. […] Passage 3 virus is used to infect Sf9 cells to overexpress the recombinant Btk protein. The Btk protein is then purified to homogeneity using Ni-NTA column. […] A solution of 200 μM ATP is prepared in water and adjusted to pH 7.4 with 1N NaOH. A quantity of 1.25 μL (microliter) of compounds in 5% DMSO is transferred to a 96-well ½ area Costar polystyrene plate. Compounds are tested singly and with an 11-point dose-responsive curve (starting concentration is 10 μM; 1:2 dilution). A quantity of 18.75 μL of master mix minus enzyme (as a negative control) and master mix plus enzyme is transferred to appropriate wells in 96-well ½ area costar polystyrene plate. 5 μL of 200 μM ATP is added to that mixture in the 96-well ½ area Costar polystyrene plate for final ATP concentration of 40 μM. The reaction is allowed to incubate for 1 hour at room temperature. The reaction is stopped with Perkin Elmer 1× detection buffer containing 30 mM EDTA, 20 nM SA-APC, and 1 nM PT66 Ab. […] IC50 values are subsequently calculated. Alternatively, the Lanthascreen assay can be used to evaluate Btk activity through quantification of its phosphorylated peptide product. The FRET (Fluorescence Resonance Energy Transfer) that occurs between the fluorescein on the peptide product and the terbium on the detection antibody decreases with the addition of inhibitors of Btk that reduce the phosphorylation of the peptide. In a final reaction volume of 25 uL, Btk (h) (0.1 ng/25 ul reaction) is incubated with 50 mM Hepes pH 7.5, 10 mM MgCl2, 2 mM MnCl2, 2 mM DTT, 0.2 mM NaVO4, 0.01% BSA, and 0.4 uM fluorescein poly-GAT. […] After incubation for 60 minutes at room temperature, the reaction is stopped by the addition of a final concentration of 2 nM Tb-PY20 detection antibody in 60 mM EDTA for 30 minutes at room temperature.

[2] = tested on: CD69 by B lymphocytes in human whole blood activated with goat F(ab')2 anti-human IgM; experiment: CD69 Whole Blood Assay (CD69 Hu Blood FACS); format: cell-based; details: Lymphocyte, CD69 positive of CD20 positive cells
Procedure: CD69 is a type II C-type lectin involved in lymphocyte migration and cytokine secretion.
Human blood is obtained from healthy volunteers, with the following restrictions: 1 week drug-free, non-smokers. Blood (approximately 20 mls to test 8 compounds) is collected by venipuncture into Vacutainer® (Becton, Dickinson and Co.) tubes with sodium heparin.
Solutions of Formula I compounds at 10 mM in DMSO are diluted 1:10 in 100% DMSO, then are diluted by three-fold serial dilutions in 100% DMSO for a ten point dose-response curve. The compounds are further diluted 1:10 in PBS and then an aliquot of 5.5 μl of each compound is added in duplicate to a 2 ml 96-well plate; 5.5 μl of 10% DMSO in PBS is added as control and no-stimulus wells. Human whole blood—HWB (100 μl) is added to each well. After mixing the plates are incubated at 37° C., 5% CO2, 100% humidity for 30 minutes. Goat F(ab′)2 anti-human IgM (10 μl of a 500 μg/ml solution, 50 μg/ml final) is added to each well (except the no-stimulus wells) with mixing and the plates are incubated for an additional 20 hours. At the end of the 20 hour incubation, samples are incubated with fluorescent labeled antibodies for 30 minutes, at 37° C., 5% CO2, 100% humidity. Include induced control, unstained and single stains for compensation adjustments and initial voltage settings. Samples are then lysed with PharM Lyse™ (BD Biosciences Pharmingen) according to the manufacturer's instructions. Samples are then transferred to a 96 well plate suitable to be run on the BD Biosciences HTS 96 well system on the LSRII machine. Data acquired and Mean Fluorescence Intensity values were obtained using BD Biosciences DIVA Software. Results are initially analyzed by FACS analysis software (Flow Jo).

T1 sequence (Q06187 whole entry): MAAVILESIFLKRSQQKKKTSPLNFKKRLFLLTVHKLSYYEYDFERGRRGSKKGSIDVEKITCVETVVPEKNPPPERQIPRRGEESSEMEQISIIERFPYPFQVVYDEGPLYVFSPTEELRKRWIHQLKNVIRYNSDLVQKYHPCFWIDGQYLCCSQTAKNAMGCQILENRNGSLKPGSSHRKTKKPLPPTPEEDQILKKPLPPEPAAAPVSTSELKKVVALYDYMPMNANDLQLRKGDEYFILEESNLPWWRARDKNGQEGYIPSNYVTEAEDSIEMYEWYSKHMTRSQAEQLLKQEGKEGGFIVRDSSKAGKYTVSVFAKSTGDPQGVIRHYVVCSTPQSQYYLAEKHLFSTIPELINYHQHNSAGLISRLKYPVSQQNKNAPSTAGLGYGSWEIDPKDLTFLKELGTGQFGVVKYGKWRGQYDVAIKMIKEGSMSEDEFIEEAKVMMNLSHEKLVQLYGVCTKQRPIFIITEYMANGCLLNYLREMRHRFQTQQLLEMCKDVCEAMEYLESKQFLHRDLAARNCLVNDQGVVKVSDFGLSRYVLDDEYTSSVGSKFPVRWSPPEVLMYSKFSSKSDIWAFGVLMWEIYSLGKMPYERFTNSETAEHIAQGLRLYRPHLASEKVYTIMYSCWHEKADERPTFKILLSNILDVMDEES

| SMILES | Ki ([1]; Table 1) [nM] | IC50 ([2]; Table 1, anti-IgM stimulation) [nM] | Ki ([1]; Table 2) [nM] | IC50 ([2]; Table 2, anti-IgM stimulation) [nM] |
| --- | --- | --- | --- | --- |
| Cn1cc(-c2ccnc(N3CCn4c(cc5c4CC(C)(C)C5)C3=O)c2CO)cc(NC(=O)CN2CCOCC2)c1=O [Compound 105, N-[5-[2-(7,7-dimethyl-4-oxo-1,2,6,8-tetrahydrocyclopenta[3,4]pyrrolo[3,5-b]pyrazin-3-yl)-3-(hydroxymethyl)-4-pyridyl]-1-methyl-2-oxo-3-pyridyl]-2-morpholino-acetamide] | > 55.6 | > 5000 | – | – |
| Cn1cc(-c2ccnc(N3CCc4cc(OC(F)(F)F)ccc4C3=O)c2CO)cc(NC(=O)C2CC2)c1=O [Compound 158, N-[5-[3-(hydroxymethyl)-2-[1-oxo-6-(trifluoromethoxy)-3,4-dihydroisoquinolin-2-yl]-4-pyridyl]-1-methyl-2-oxo-3-pyridyl]cyclopropanecarboxamide] | – | – | 262 | > 4400 |
| Cc1cc(C(=O)Nc2cc(-c3ccnc(N4CCn5c(cc6c5CC(C)(C)C6)C4=O)c3CO)cn(C)c2=O)n[nH]1 [Compound 111, N-[5-[2-(7,7-dimethyl-4-oxo-1,2,6,8-tetrahydrocyclopenta[3,4]pyrrolo[3,5-b]pyrazin-3-yl)-3-(hydroxymethyl)-4-pyridyl]-1-methyl-2-oxo-3-pyridyl]-5-methyl-1H-pyrazole-3-carboxamide] | > 500 | > 5400 | – | – |
| Cn1cc(-c2cccc(N3CCc4c(cc5n4CC(C)(C)C5)C3=O)c2CO)cc(NC(=O)C2CC2)c1=O [Compound 142, N-[5-[3-(7,7-dimethyl-4-oxo-1,2,6,8-tetrahydropyrido[3,4-b]pyrrolizin-3-yl)-2-(hydroxymethyl)phenyl]-1-methyl-2-oxo-3-pyridyl]cyclopropanecarboxamide] | – | – | 1.8 | 70 |
| Cn1cc(-c2cc(F)cc(N3CCc4c(cc5n4CCCC5)C3=O)c2CO)cc(NC(=O)[C@@H]2C[C@@H]2F)c1=O [Compound 167, (1S,2S)-2-fluoro-N-[5-[5-fluoro-2-(hydroxymethyl)-3-(1-oxo-3,4,6,7,8,9-hexahydropyrido[3,4-b]indolizin-2-yl)phenyl]-1-methyl-2-oxo-3-pyridyl]cyclopropanecarboxamide] | – | – | 2.4 | 245 |
| CCC(=O)Nc1cc(-c2ccnc(-n3ncc4cc(C(C)(C)C)cc(F)c4c3=O)c2CO)cn(C)c1=O [Compound 126, N-[5-[2-(6-tert-butyl-8-fluoro-1-oxo-phthalazin-2-yl)-3-(hydroxymethyl)-4-pyridyl]-1-methyl-2-oxo-3-pyridyl]propanamide] | 7.01 | 527 | – | – |
| CCNC(=O)Nc1cc(-c2ccnc(N3CCn4c(cc5c4CC(C)(C)C5)C3=O)c2CO)cn(C)c1=O [Compound 159, 1-[5-[2-(7,7-dimethyl-4-oxo-1,2,6,8-tetrahydrocyclopenta[3,4]pyrrolo[3,5-b]pyrazin-3-yl)-3-(hydroxymethyl)-4-pyridyl]-1-methyl-2-oxo-3-pyridyl]-3-ethyl-urea] | – | – | 1.6 | 133 |
| CC(=O)Nc1cc(-c2ccnc(-n3ncc4cc(C(C)(C)C)cc(F)c4c3=O)c2CO)cn(C)c1=O [Compound 127, N-[5-[2-(6-tert-butyl-8-fluoro-1-oxo-phthalazin-2-yl)-3-(hydroxymethyl)-4-pyridyl]-1-methyl-2-oxo-3-pyridyl]acetamide] | 10.8 | 335 | – | – |
| Cn1cc(-c2ccnc(N3CCn4c(cc5c4CC(C)(C)C5)C3=O)c2CO)cc(NC(=O)c2ccccc2)c1=O [Compound 114, N-[5-[2-(7,7-dimethyl-4-oxo-1,2,6,8-tetrahydrocyclopenta[3,4]pyrrolo[3,5-b]pyrazin-3-yl)-3-(hydroxymethyl)-4-pyridyl]-1-methyl-2-oxo-3-pyridyl]benzamide] | 236 | > 5400 | – | – |
| Cn1cc(-c2ccnc(N3CCn4c(cc5c4CC(C)(C)C5)C3=O)c2CO)cc(NC(=O)c2cnco2)c1=O [Compound 115, N-[5-[2-(7,7-dimethyl-4-oxo-1,2,6,8-tetrahydrocyclopenta[3,4]pyrrolo[3,5-b]pyrazin-3-yl)-3-(hydroxymethyl)-4-pyridyl]-1-methyl-2-oxo-3-pyridyl]oxazole-5-carboxamide] | > 500 | > 3200 | – | – |
| Cn1cc(C(=O)Nc2cc(-c3ccnc(N4CCn5c(cc6c5CC(C)(C)C6)C4=O)c3CO)cn(C)c2=O)cn1 [Compound 110, N-[5-[2-(7,7-dimethyl-4-oxo-1,2,6,8-tetrahydrocyclopenta[3,4]pyrrolo[3,5-b]pyrazin-3-yl)-3-(hydroxymethyl)-4-pyridyl]-1-methyl-2-oxo-3-pyridyl]-1-methyl-pyrazole-4-carboxamide] | > 167 | > 2600 | – | – |
| CC1CC1C(=O)Nc1cc(-c2ccnc(N3CCn4c(cc5c4CC(C)(C)C5)C3=O)c2CO)cn(C)c1=O (stereo not drawn) [Compound 106, N-[5-[2-(7,7-dimethyl-4-oxo-1,2,6,8-tetrahydrocyclopenta[3,4]pyrrolo[3,5-b]pyrazin-3-yl)-3-(hydroxymethyl)-4-pyridyl]-1-methyl-2-oxo-3-pyridyl]-2-methyl-cyclopropanecarboxamide] | 10.6 | 373 | – | – |
| Cn1cc(-c2ccnc(N3CCn4c(cc5c4CC(C)(C)C5)C3=O)c2CO)cc(NC(=O)[C@H]2CC23CC3)c1=O (single isomer, unassigned) [Compound 141] | – | – | 5.8 | 1600 |
| Cn1cc(-c2ccnc(N3CCc4cc(OC(F)F)cc(F)c4C3=O)c2CO)cc(NC(=O)[C@@H]2C[C@@H]2F)c1=O [Compound 151, (1S,2S)—N-[5-[2-[6-(difluoromethoxy)-8-fluoro-1-oxo-3,4-dihydroisoquinolin-2-yl]-3-(hydroxymethyl)-4-pyridyl]-1-methyl-2-oxo-3-pyridyl]-2-fluoro-cyclopropanecarboxamide] | – | – | 66 | > 5300 |
| Cn1cc(-c2ccnc(-n3ncc4cc(C(C)(C)C)cc(F)c4c3=O)c2CO)cc(NC(=O)[C@@H]2CC23CC3)c1=O (single isomer, unassigned) [Compound 161] | – | – | 3.7 | 338 |
| COCC(=O)Nc1cc(-c2ccnc(-n3ncc4cc(C(C)(C)C)cc(F)c4c3=O)c2CO)cn(C)c1=O [Compound 156, N-[5-[2-(6-tert-butyl-8-fluoro-1-oxo-phthalazin-2-yl)-3-(hydroxymethyl)-4-pyridyl]-1-methyl-2-oxo-3-pyridyl]-2-methoxy-acetamide] | – | – | 21 | > 4500 |
| Cn1cc(-c2cc(F)cc(N3CCc4c(cc5n4CC(C)(C)C5)C3=O)c2CO)cc(NC(=O)[C@@H]2C[C@@H]2F)c1=O [Compound 168] | – | – | 1 | 157 |
| CN1CC[C@]2(C[C@@H]2C(=O)Nc2cc(-c3ccnc(-n4ncc5cc(C(C)(C)C)cc(F)c5c4=O)c3CO)cn(C)c2=O)C1 (single isomer, unassigned) [Compound 173] | – | – | 26 | > 4800 |
